Results on 4 molecules are retold here after ChEMBL document CHEMBL4680376, “Discovery of Orally Active and Nonsteroidal Farnesoid X Receptor (FXR) Antagonist with Propensity for Accumulation and Responsiveness in Ileum” (ACS Med Chem Lett, 2021).

Series [1] in a line: Metabolic stability in mouse liver microsomes assessed as compound remaining at 1 ug/ml incubated for 30 mins by LC-MS/MS analysis. To be noted: at 1 µg/mL. A general note: Microsomes from liver hold many membrane-bound enzymes, among them those of drug oxidation.
The next series deals with Huh-7. The series is described as follows: Cytotoxicity against human HuH-7 cells by MTT assay. A general note: Tetrazolium assays rely on reduction of a dye to a coloured formazan, in cell work by metabolically active cells.
Series [2] in a line: in vivo. The following applies: Sprague-Dawley, rat, po, 30 mg/kg.
The nature of series [3]: in vivo. To be noted: Sprague-Dawley, rat, po, 30 mg/kg. The source holds these as a separate data set.
Series [4] is described as follows: Metabolic stability in rat liver microsomes assessed as compound remaining at 1 ug/ml incubated for 30 mins by LC-MS/MS analysis. To be noted: at 1 µg/mL.
Series [5] can be described thus: in vivo. To be noted: Sprague-Dawley, rat, po, 30 mg/kg. The source holds these as a separate data set.
Series [6] has as its target T1, Bile acid receptor (Homo sapiens, UniProt Q96RI1).
T1 sequence (Q96RI1 whole entry): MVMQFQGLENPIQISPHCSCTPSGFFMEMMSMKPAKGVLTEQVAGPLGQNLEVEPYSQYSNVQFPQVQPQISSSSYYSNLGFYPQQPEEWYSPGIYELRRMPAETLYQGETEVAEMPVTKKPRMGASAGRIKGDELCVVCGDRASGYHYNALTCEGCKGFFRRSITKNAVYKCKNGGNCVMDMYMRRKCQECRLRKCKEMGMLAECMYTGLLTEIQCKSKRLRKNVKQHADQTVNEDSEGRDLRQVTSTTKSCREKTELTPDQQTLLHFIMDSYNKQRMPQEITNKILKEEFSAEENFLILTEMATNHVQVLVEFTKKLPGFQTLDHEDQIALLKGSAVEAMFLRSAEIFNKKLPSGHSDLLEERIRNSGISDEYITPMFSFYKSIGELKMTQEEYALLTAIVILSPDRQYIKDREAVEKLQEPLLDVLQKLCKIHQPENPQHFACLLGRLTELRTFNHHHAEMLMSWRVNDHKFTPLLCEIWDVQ
Nature of the series: Antagonist activity against recombinant human FXR transfected in human HuH-7 cells co-transfected with FRE-luciferase assessed as reduction in CDCA-induced luciferase expression incubated for 24 hrs by luciferase reporter gene assay.

For series [7], the target named is T1, Bile acid receptor. The series is described as follows: Antagonist activity at recombinant GST-tagged FXR LBD (unknown origin) assessed as inhibition of GW4064-induced Fluorecein-SRC2-2 coactivator peptide recruitment by LanthaScreen TR-FRET co-regulator assay. (In general: Time-resolved FRET reads energy transfer from a long-lived donor to a nearby acceptor.)

Series [8] in a line: Plasma concentration in Sprague-Dawley rat at 30 mg/kg, po measured after 6 hrs by LC-MS/MS analysis.
The conditions of series [9]: rat, in vivo, iv, 1 mg/kg, 6 h.
The nature of series [10]: in vivo. The following applies: Sprague-Dawley, rat, po, 30 mg/kg. The source holds these as a separate data set.

What is called amount remaining is what is left of the initial amount, in per cent. As a reminder, the IC50 is the point on the concentration scale where inhibition reaches its midpoint. Consider `Cc1ccc2nc([C@H](CC3CCN(C(=O)C(C)C)CC3)N3C(=O)CN(c4ccc(Oc5ccc(F)cc5)cc4)C3=O)n(C)c2c1`, for which, in series [1], the fraction remaining at 0.5 h, 1 ug/ml turned out to be 10.6%. In the series on Huh-7, the IC50 is > 100000 nM.

What is called Tmax is the time at which the peak concentration occurs. The term Cmax denotes the peak of the concentration-time curve. Usually bioavailability stands for dose-corrected exposure relative to a reference, in per cent. Low values mean poor availability, high ones good availability. As for `COc1ccc(Oc2ccc(N3CC(=O)N([C@@H](CC4CCN(C(=O)C(C)C)CC4)c4nc5ccc(C)cc5n4C)C3=O)cc2)cc1`, the fraction remaining at 0.5 h, 1 ug/ml in [1] came to 2.4%; in series [4], 12.1%. The Tmax at 6 h in “in vivo [2]” was 2 h. The peak level in “in vivo [3]” (Cmax at 6 h) was 483 ng/mL. Further, the IC50 with Huh-7 is > 100000 nM; at Bile acid receptor [6], < 0.001 nM. Further, in “in vivo [5]”, the bioavailability at 6 h turned out to be 18%.

As to `CC(C)C(=O)N1CCC(C[C@@H](c2nc3ccccc3n2C2CC2)N2C(=O)CN(c3ccc(Oc4ccc(F)cc4)cc3)C2=O)CC1`, the share remaining at 0.5 h, 1 ug/ml in series [1] worked out at 29.4%. Besides, the IC50 in the series on Huh-7 is > 100000 nM; on Bile acid receptor [7], 140 nM; at Bile acid receptor [6], 1.8 nM.

For orientation: AUC means the area under the concentration-time curve, a measure of exposure. A low value points to low exposure. A word on the AUC(0-t): it is the area under the concentration-time curve up to a stated or last time point. Lower therefore signals less exposure. For the molecule `CC(C)C(=O)N1CCC(C[C@@H](c2nc3ccc(F)cc3n2C2CC2)N2C(=O)CN(c3ccc(Oc4ccc(F)cc4)cc3)C2=O)CC1`, the amount remaining at 0.5 h, 1 ug/ml was determined as 54% in [1] and 84.4% in [4]. For the same molecule, in “in vivo [2]”, the Tmax at 6 h is 3 h. Moreover, the concentration at 6 h in series [8] came out at 2480 ng/mL. For the same molecule, the Cmax at 6 h in the series “in vivo [3]” turned out to be 2850 ng/mL. Besides, in series [9], the AUC stood at 937 ng·h/mL. In the series on Huh-7, the IC50 is > 100000 nM. The molecule also had an AUC(0-t) at 6 h in “in vivo [10]” of 15600 ng·h/mL. Further, the bioavailability at 6 h in “in vivo [5]” was determined as 55.4%.
